Test results reported in patent US20200197409A1, “HEPATITIS B VIRUS SURFACE ANTIGEN INHIBITOR” (FUJIAN COSUNTER PHARMACEUTICAL CO., LTD., priority 2017, published 2020).

Experiments:
[1] = Plasma protein binding rate, human plasma; format: in vitro ADME; settings: plasma of human, dialysis 4 hours at 37° C.
Experimental: (§1) The protein binding rate of Embodiment 6 in the plasma of human, CD-1 mouse and SD rat was determined, 796 μL of blank plasma was taken from human, CD-1 mice and SD rats, and 4 μL of test compound working solution (400 μM) or warfarin working solution (400 μM) was added to achieve a final concentration of the test compound and the warfarin in plasma samples of 2 μM. The samples were mixed thoroughly. The final concentration of organic phase DMSO was 0.5%, 50 μL of the test compound and warfarin plasma sample were transferred into sample receiving plates (three parallels), and a relative volume of corresponding blank plasma or buffer was immediately added, ensuring that the final volume of each sample well was 100 μL, and the volume ratio of plasma to dialysis buffer was 1:1. 400 μL of stop solution was added to these samples, which was used as a T0 sample for the determination of recovery and stability. […] The protein binding rate and the recovery rate were calculated by the formulas: % Protein unbinding rate (%)=100*Drug concentration through the dialysis membrane/drug concentration not through the dialysate: Protein binding rate (%)=100-% protein unbinding rate: % Recovery=100*(Drug concentration through the dialysis membrane+Drug concentration not through the dialysate)/Total drug concentration before undialysis. Protein binding rate and recovery rate were calculated.

[2] = Single-dose pharmacokinetic study on rat; format: in vivo, SD rats
[3] = test system: HBV; assay: In vivo pharmacodynamic study of hydrodynamic injection mouse HBV model (HDI-HBV) via tail vein; set-up: species or system Balb/c mice; settings: mouse plasma
Experimental: Anti-hepatitis B virus activity of the compound of the embodiment in vivo was evaluated by HDI mice model.
Balb/c mice, 10% HP—F-CD as vehicle, test compound, RG7834, ETV (Entecavir), pAAV2-HBV 1.3mer plasmid (extracted with Qiagen EndoFree Plasmid Giga kit), main reagents including QIAamp96 DNA kit and FasStart Universal Probe Mast (ROX). The main instruments used in this experiment included centrifuge (Beckman Allegra X-15R), tissue grinder (QIAGEN-Tissue lyser II) and spectrophotometer (Thermo-NANODROP 1000).
b) On day 0, all mice were subjected to hydrodynamic injection with HBV plasmid DNA solution via tail vein. The plasmid DNA was pre-treated with sterile physiological saline before injection and stored at 4° C. until use. Plasmid DNA solution was injected via the tail vein at a dose of 8% of the body weight of the mouse within 5 seconds.
c) On the 1st day to the 7th day, the mice were administered with the compound or solvent by oral gavage for 7 days.
d) On the 1st day, 3rd day and 5th day, the blood was collected from the submandibular vein of the mice, and heparin sodium was used as an anticoagulant. The blood sample was centrifuged at 7,000×g, 4° C. to prepare the plasma for the determination of HBV DNA.
e) On the 7^h day, all mice were euthanized by CO2. The blood was collected from the heart to prepare plasma, and the liver tissue was collected. Two left hepatic lobe were isolated, the size of which was 70-100 mg, and were frozen by liquid nitrogen immediately after collection. One of the hepatic lobe was used for HBV DNA detection, and the other was used for backup.
The content of HBsAg in the serum of the mice was determined by ELISA (enzyme linked immunosorbent assay). The experimental procedure refers to the specification of HBsAg ELISA kit.
The inhibitory activity of the test compound on HBV replication on the mouse HDI model was determined by measuring the content of HBsAg in the plasma of the mice.

[4] = Single dose neurotoxicity test on rats (functional observation combination test, FOB); format: in vivo; settings: 24 hours after single intragastric dose of 1000 mg/kg and 300 mg/kg, male SD rats
Experimental: In this experiment, SD rats were intragastrically administrated with RG7834 and Embodiment 6 in a single dose, and the potential neurobehavioral toxicities to SD rats were evaluated by functional observation combination test (FOB). A total of 25 SD male rats were used in this experiment. At the start of the administration, the animals were about 7 to 8 weeks old, males weighed between 225.50 and 285.70 g, and […]. […] The animals in the control group were administered with the menstruum. All animals were administered at a volume of 10 mL/kg, and subjected to the FOB test.

[5] = Plasma protein binding rate, SD rat plasma; format: in vitro ADME; settings: plasma of SD rat, dialysis 4 hours at 37° C.
Experimental: as §1

[6] = Plasma protein binding rate, CD-1 mouse plasma; format: in vitro ADME; settings: plasma of CD-1 mouse, dialysis 4 hours at 37° C.
Experimental: as §1

[7] = Microsomal metabolism stability, human; format: in vitro ADME; settings: human liver microsomes 0.5 mg/mL, 1 μM, NADPH, 37° C.
Experimental: The microsomal metabolism stability of the test compound (Embodiment 6) in three species was determined. 1 μM test compound and microsomes (0.5 mg/mL) supplemented with NADPH regeneration system were incubated at 37° C. The positive controls were testosterone (3A4 substrate), propafenone (2D6 substrate) and diclofenac (2C9 substrate), respectively. The positive control and microsomes (0.5 mg/mL) supplemented with NADPH regeneration system were incubated at 37° C. Samples at different time points (0, 5, 10, 20, 30, and 60 minutes) were mixed directly with cold acetonitrile containing an internal standard to terminate the reaction. The compound and microsomes were incubated for 60 minutes without the NADPH regeneration system. One parallel was set at each time point (n=1). The samples were analyzed by LC/MS/MS. The concentration of the compound was indicated by the ratio of the peak area of the analyte to the peak area of the internal standard.

[8] = Single-dose pharmacokinetic study on mouse; format: in vivo, C57BL/6 mice

## COCCCOc1cc2c(cc1OC)-c1cc(=O)c(C(=O)O)cn1[C@H](C(C)(C)C)CO2 [Embodiment 6]
[1]
  fraction unbound at 4 h, 2 μM: 0.443
[2]; IV: 1 mg/kg PO: 2 mg/kg
  Apparent distribution volume: 1.72 L/kg
  Bioavailability: 71.1%
  Highest concentration: 659 nM
[2]; male, SD, plasma, IV: 1 mg/kg PO: 2 mg/kg
  half-life: 1.98 h
[2]; male, SD, plasma, IV: 1 mg/kg PO: 2 mg/kg, read-out: Clearance rate
  clearance: 28.1 mL/min/kg
[2]; male, SD, plasma, IV: 1 mg/kg, read-out: AUC0-last (Intravenous injection)
  AUC(0-t): 1.36 µM·h
[2]; male, SD, plasma, PO: 2 mg/kg, read-out: AUC0-last (Oral)
  AUC(0-t): 1.83 µM·h
[3]; dosing time day 1, 30 mg/kg QD gavage
  Log HBsAg (IU/mL) (Ave. value): 3.86 IU/mL
[3]; dosing time day 3, 30 mg/kg QD gavage
  Log HBsAg (IU/mL) (Ave. value): 4.09 IU/mL
[3]; dosing time day 5, 30 mg/kg QD gavage
  Log HBsAg (IU/mL) (Ave. value): 3.27 IU/mL
[3]; dosing time day 7, 30 mg/kg QD gavage
  Log HBsAg (IU/mL) (Ave. value): 1.07 IU/mL
[4]
  magnification of the pupil associated with the test compound: did not appear
[5]
  fraction unbound at 4 h, 2 μM: 0.406
[6]
  fraction unbound at 4 h, 2 μM: 0.498
[7]
  remaining ratio at T=60 min: 109.1%
[8]; IV: 1 mg/kg PO: 2 mg/kg
  Apparent distribution volume: 5.79 L/kg
  Bioavailability: 91.6%
  Highest concentration: 1055 nM
[8]; male, C57BL/6, plasma, IV: 1 mg/kg PO: 2 mg/kg
  half-life: 2.46 h
[8]; male, C57BL/6, plasma, IV: 1 mg/kg PO: 2 mg/kg, read-out: Clearance rate
  clearance: 75 mL/min/kg
[8]; male, C57BL/6, plasma, IV: 1 mg/kg, read-out: AUC0-last (Intravenous injection)
  AUC(0-t): 0.502 µM·h
[8]; male, C57BL/6, plasma, PO: 2 mg/kg, read-out: AUC0-last (Oral)
  AUC(0-t): 0.876 µM·h
